Data as given in patent US6300344A, “Heterocyclic compounds” (Fujisawa Pharmaceutical Co., Ltd., priority 1995, dated 2001).
Counter-ions that a name gives are not always drawn.

System: human platelet aggregation induced by ADP
Test: Inhibition of human platelet aggregation induced by ADP
Type: cell-based
Settings: test compound 1.0 × 10^-7 M; human platelet rich plasma; ADP 2.5 μM final; 37° C.; mean ± S.E.
Experimental: Inhibition of human platelet aggregation induced by ADP
The citrate blood was centrifuged at 150 ×g for 10 minutes and the platelet rich plasma (PRP) was removed. The remaining blood was centrifuged for a further 10 minutes at 1500 ×g to prepare the platelet poor plasma (PPP), which was used as a reference for platelet aggregation. […] 25 μl of sample solution and 225 μl of PRP were mixed and stirred at 1000 rpm for 2 minutes at 37° C. Aggregation was induced by ADP solution at the final concentration of 2.5 μM.

| SMILES | inhibition at 0.1 µM [%] |
| --- | --- |
| O=C(O)COc1cccc(CC2CCCCC=C2c2nc(-c3ccccc3)c(-c3ccccc3)o2)c1 (centres unmarked) [Test Compound (1), Sodium [3-[[2-(4,5-diphenyloxazol-2-yl)-2-cyclohepten-1-yl]methyl]phenoxy]acetate] | 88 ± 0.5 |
| O=C(O)COc1cccc2c1CCC[C@H]2N1CCC[C@@H]1c1nc(-c2ccccc2)c(-c2ccccc2)o1 [Test Compound (2), Sodium salt of (1R)-1-((2R)-2-(4,5-diphenyloxazol-2-yl)pyrrolidin-1-yl]-5-carboxymethoxy-1,2,3,4-tetrahydronaphthalene] | 85 ± 7.6 |
